In patent US7915270B2, “Oxazole ketones as modulators of fatty acid amide hydrolase” (The Scripps Research Institute, priority 2006, dated 2011):

Tests used:
FAAH [1] = biological target: T1, FAAH (Rattus norvegicus, UniProt P97612); assay: Assay Method 1A: FAAH enzyme assay, 14C-oleamide hydrolysis, solubilized liver plasma membrane extract;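 note: ki obtained by Dixon analysis, taking the x-intercept of inhibitor concentration versus reciprocal rate plots at fixed substrate level and correcting for substrate concentration relative to Km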
T1 sequence (P97612 1-579): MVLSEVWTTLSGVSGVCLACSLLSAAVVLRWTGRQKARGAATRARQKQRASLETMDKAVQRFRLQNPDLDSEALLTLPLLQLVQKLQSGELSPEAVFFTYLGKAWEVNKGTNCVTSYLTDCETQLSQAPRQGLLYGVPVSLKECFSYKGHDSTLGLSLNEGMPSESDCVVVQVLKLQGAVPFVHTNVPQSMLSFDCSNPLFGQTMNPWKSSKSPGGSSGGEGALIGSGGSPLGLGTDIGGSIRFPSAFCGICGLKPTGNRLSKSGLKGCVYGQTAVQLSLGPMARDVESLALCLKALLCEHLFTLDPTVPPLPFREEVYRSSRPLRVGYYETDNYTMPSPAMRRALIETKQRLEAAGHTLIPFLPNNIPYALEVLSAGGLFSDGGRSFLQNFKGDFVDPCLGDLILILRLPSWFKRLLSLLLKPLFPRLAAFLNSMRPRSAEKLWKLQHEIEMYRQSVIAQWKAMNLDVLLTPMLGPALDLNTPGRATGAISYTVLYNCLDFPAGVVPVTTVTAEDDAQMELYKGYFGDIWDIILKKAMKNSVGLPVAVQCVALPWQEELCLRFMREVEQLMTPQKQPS
Protocol: Linear least squares fits were used for all reaction progress curves and R^2 values were consistently >0.97. […] Ki values were determined by the Dixon Method (x-intercepts of weighted linear fits of [I] versus 1/rate plots at constant substrate concentration, which were converted to Ki values using the formula Ki=−xint/[1+[S]/Km]).

FAAH [2] = biological target: T2, FAAH (Homo sapiens, UniProt O00519); assay: Assay Method 1B: FAAH assay, 3H-anandamide hydrolysis in cell homogenate (T84 or SK-N-MC cells transfected with human FAAH); type: biochemical; parameters: expressed in transfected cells; settings: 3H-AEA 80 nM, rt 1 h, pH 9
T2 sequence (O00519 1-579): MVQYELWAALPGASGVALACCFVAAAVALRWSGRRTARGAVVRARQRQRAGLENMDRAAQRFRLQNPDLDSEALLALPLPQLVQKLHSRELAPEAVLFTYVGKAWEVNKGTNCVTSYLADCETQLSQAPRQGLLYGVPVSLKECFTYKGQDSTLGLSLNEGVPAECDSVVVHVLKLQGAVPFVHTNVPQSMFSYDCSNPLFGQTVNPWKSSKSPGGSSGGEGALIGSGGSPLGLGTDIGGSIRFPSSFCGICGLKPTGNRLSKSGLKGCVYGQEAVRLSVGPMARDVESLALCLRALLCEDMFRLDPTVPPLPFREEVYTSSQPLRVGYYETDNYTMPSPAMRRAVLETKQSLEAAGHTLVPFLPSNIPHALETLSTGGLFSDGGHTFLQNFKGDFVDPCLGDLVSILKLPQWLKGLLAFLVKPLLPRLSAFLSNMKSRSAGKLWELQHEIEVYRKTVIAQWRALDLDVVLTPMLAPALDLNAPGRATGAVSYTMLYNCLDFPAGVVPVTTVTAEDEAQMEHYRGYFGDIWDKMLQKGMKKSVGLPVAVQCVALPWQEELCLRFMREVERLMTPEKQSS
Protocol: Transfection of Cells with Human FAAH A 10-cm tissue culture dish with a confluent monolayer of SK—N-MC cells was split 2 days (d) prior to transfection. Using sterile technique, the media was removed and the cells were detached from the dish by the addition of trypsin. One fifth of the cells were then placed onto a new 10-cm dish. Cells were grown in a 37° C. incubator with 5% CO2 in Minimal Essential Media Eagle with 10% Fetal Bovine Serum. After 2 d, cells were approximately 80% confluent. These cells were removed from the dish with trypsin and pelleted in a clinical centrifuge. The pellet was re-suspended in 400 μL complete media and transferred to an electroporation cuvette with a 0.4 cm gap between the electrodes. Supercoiled human FAAH cDNA (1 μg) was added to the cells and mixed. The voltage for the electroporation was set at 0.25 kV, and the capacitance was set at 960 μF. After electroporation, the cells were diluted into complete media (10 mL) and plated onto four 10-cm dishes. Because of the variability in the efficiency of electroporation, four different concentrations of cells were plated. The ratios used were 1:20, 1:10, and 1:5, with the remainder of the cells being added to the fourth dish. The cells were allowed to recover for 24 h before adding the selection media (complete media with 600 μg/mL G418). After 10 d, dishes were analyzed for surviving colonies of cells. Dishes with well-isolated colonies were used. Cells from individual colonies were isolated and tested. […] The reaction mixture was incubated at rt for 1 h. During the incubation, 96-well Multiscreen filter plates (catalog number MAFCNOB50; Millipore, Bedford, Mass., USA) were loaded with 25 μL of activated charcoal (Multiscreen column loader, catalog number MACL09625, Millipore) and washed once with 100 μL of MeOH. Also during the incubation, 96-well DYNEX MicroLite plates (catalog number NL510410) were loaded with 100 μL of MicroScint40 (catalog number 6013641, Packard Bioscience, Meriden, Conn., USA). After the 1 h incubation, 60 μL of the reaction mixture were transferred to the charcoal plates, which were then assembled on top of the DYNEX plates using Centrifuge Alignment Frames (catalog number MACF09604, Millipore). The unbound labeled ethanolamine was centrifuged through to the bottom plate (5 min at 2000 rpm), which was preloaded with the scintillant, as described above. The plates were sealed and left at rt for 1 h before counting on a Hewlett Packard TopCount.

Rat FAAH = biological target: T3, Rat FAAH (Rattus norvegicus, UniProt P97612); assay: Assay Method 2: FAAH assay, 3H-anandamide hydrolysis in cell homogenate (SK-N-MC cells transfected with rat FAAH); type: biochemical; settings: 3H-AEA 80 nM, rt 1 h, pH 9
T3 construct: expressed in transfected cells
T3 sequence (P97612 1-579): T1 sequence (P97612 1-579)
Protocol: A. Transfection of Cells with Rat FAAH
A 10-cm tissue culture dish with a confluent monolayer of SK—N-MC cells was split 2 days (d) prior to transfection. Using sterile technique, the media was removed and the cells were detached from the dish by the addition of trypsin. One fifth of the cells were then placed onto a new 10-cm dish. Cells were grown in a 37° C. incubator with 5% CO2 in Minimal Essential Media Eagle with 10% Fetal Bovine Serum. After 2 d, cells were approximately 80% confluent. These cells were removed from the dish with trypsin and pelleted in a clinical centrifuge. The pellet was re-suspended in 400 μL complete media and transferred to an electroporation cuvette with a 0.4 cm gap between the electrodes. Supercoiled rat FAAH cDNA (1 μg) was added to the cells and mixed. The voltage for the electroporation was set at 0.25 kV, and the capacitance was set at 960 μF. After electroporation, the cells were diluted into complete media (10 mL) and plated onto four 10-cm dishes. Because of the variability in the efficiency of electroporation, four different concentrations of cells were plated. The ratios used were 1:20, 1:10, and 1:5, with the remainder of the cells being added to the fourth dish. The cells were allowed to recover for 24 h before adding the selection media (complete media with 600 μg/mL G418). After 10 d, dishes were analyzed for surviving colonies of cells. Dishes with well-isolated colonies were used. Cells from individual colonies were isolated and tested.
The assay mixture consisted of 50 μL of the cell homogenate, 10 μL of the test compound, and 40 μL of anandamide [1-^3H-ethanolamine] (^3H-AEA, Perkin-Elmer, 10.3 Ci/mmol), which was added last, for a final tracer concentration of 80 nM. The reaction mixture was incubated at rt for 1 h. During the incubation, 96-well Multiscreen filter plates (catalog number MAFCNOB50; Millipore, Bedford, Mass., USA) were loaded with 25 μL of activated charcoal (Multiscreen column loader, catalog number MACL09625, Millipore) and washed once with 100 μL of MeOH. […] After the 1 h incubation, 60 μL of the reaction mixture were transferred to the charcoal plates, which were then assembled on top of the DYNEX plates using Centrifuge Alignment Frames (catalog number MACF09604, Millipore). The unbound labeled ethanolamine was centrifuged through to the bottom plate (5 min at 2000 rpm), which was preloaded with the scintillant, as described above. The plates were sealed and left at rt for 1 h before counting on a Hewlett Packard TopCount.

| Ki (FAAH [1]) [nM] | IC50 (FAAH [2]) [nM] | IC50 (Rat FAAH) [nM] | Compound |
| --- | --- | --- | --- |
| 25 | – | – | Nc1ccnc(-c2cnc(C(=O)CCCCCCc3ccccc3)o2)c1 [Example 49, 1-(5-(4-Aminopyridin-2-yl)oxazol-2-yl)-7-phenylheptan-1-one] |
| – | 450 | 1800 | O=C(CCCCCCc1ccccc1)c1ncc(-c2ccc(O)cc2)o1 [Example 32, 1-(5-(4-Hydroxyphenyl)oxazol-2-yl)-7-phenylheptan-1-one] |
| 5 | – | – | COc1cc(-c2cnc(C(=O)CCCCCCc3ccccc3)o2)nc(OC)n1 [Example 51, 1-(5-(2,6-Dimethoxypyrimidin-4-yl)oxazol-2-yl)-7-phenylheptan-1-one] |
| 2 | – | – | COc1ccnc(-c2cnc(C(=O)CCCCCCc3ccccc3)o2)c1 [Example 45, 1-(5-(4-Methoxypyridin-2-yl)oxazol-2-yl)-7-phenylheptan-1-one] |
| – | 110 | 500 | O=C(CCCCCCc1ccccc1)c1ncc(-c2ccc([N+](=O)[O-])cc2)o1 [Example 3, 1-(5-(4-Nitrophenyl)oxazol-2-yl)-7-phenylheptan-1-one] |
| 4 | – | – | O=C(CCCCCCc1ccccc1)c1ncc(-c2cc(C(F)(F)F)ccn2)o1 [Example 47, 7-Phenyl-1-(5-(4-(trifluoromethyl)pyridin-2-yl)oxazol-2-yl)heptan-1-one] |
| – | 290 | 220 | N#Cc1ccc(-c2cnc(C(=O)CCCCCCc3ccccc3)o2)cc1 [Example 18, 4-(2-(7-Phenylheptanoyl)oxazol-5-yl)benzonitrile] |
| 2 | – | – | N#Cc1ccnc(-c2cnc(C(=O)CCCCCCc3ccccc3)o2)c1 [Example 46, 2-(2-(7-Phenylheptanoyl)oxazol-5-yl)isonicotinonitrile] |
| 3 | – | – | O=C(CCCCCCc1ccccc1)c1ncc(-c2cc([N+](=O)[O-])ccn2)o1 [Example 48, 1-(5-(4-Nitropyridin-2-yl)oxazol-2-yl)-7-phenylheptan-1-one] |
| 3 | – | – | Cc1cccc(-c2cnc(C(=O)CCCCCCc3ccccc3)o2)n1 [Example 41, 1-(5-(6-Methylpyridin-2-yl)oxazol-2-yl)-7-phenylheptan-1-one] |
| – | 12 | 34 | NC(=O)c1cccc(-c2cnc(C(=O)CCCCCCc3ccccc3)o2)c1 [Example 8, 3-(2-(7-Phenylheptanoyl)oxazol-5-yl)benzamide] |
| 26 | – | – | COc1ncc(-c2cnc(C(=O)CCCCCCc3ccccc3)o2)c(OC)n1 [Example 53, 1-(5-(2,4-Dimethoxypyrimidin-5-yl)oxazol-2-yl)-7-phenylheptan-1-one] |
| – | 280 | 980 | Nc1ccc(-c2cnc(C(=O)CCCCCCc3ccccc3)o2)cc1 [Example 29, 1-(5-(4-Aminophenyl)oxazol-2-yl)-7-phenylheptan-1-one] |
| – | 770 | 4000 | COc1ccc(-c2cnc(C(=O)CCCCCCc3ccccc3)o2)cc1 [Example 15, 1-(5-(4-Methoxyphenyl)oxazol-2-yl)-7-phenylheptan-1-one] |
| – | 260 | 1700 | O=C(CCCCCCc1ccccc1)c1ncc(-c2ccc(C(=O)C(F)(F)F)cc2)o1 [Example 6, 7-Phenyl-1-(5-(4-(2,2,2-trifluoroacetyl)phenyl)oxazol-2-yl)heptan-1-one] |
| 3 | – | – | Cc1ccc(-c2cnc(C(=O)CCCCCCc3ccccc3)o2)nc1 [Example 42, 1-(5-(5-Methylpyridin-2-yl)oxazol-2-yl)-7-phenylheptan-1-one] |
| – | 160 | 1800 | NC(=O)c1ccccc1-c1cnc(C(=O)CCCCCCc2ccccc2)o1 [Example 7, 2-(2-(7-Phenylheptanoyl)oxazol-5-yl)benzamide] |
| – | 8000 | 47 | O=C(CCCCCCc1ccccc1)c1ncc(-c2c[nH]c(=O)[nH]c2=O)o1 [Example 54, 5-(2-(7-Phenylheptanoyl)oxazol-5-yl)pyrimidine-2,4(1H,3H)-dione] |
| 1 | – | – | Cc1ccnc(-c2cnc(C(=O)CCCCCCc3ccccc3)o2)c1 [Example 43, 1-(5-(4-Methylpyridin-2-yl)oxazol-2-yl)-7-phenylheptan-1-one] |
| 1500 | 2000 | – | NS(=O)(=O)c1ccccc1-c1cnc(C(=O)CCCCCCc2ccccc2)o1 [Example 19, 2-(2-(7-Phenylheptanoyl)oxazol-5-yl)benzenesulfonamide] |
| 1 | – | – | COC(=O)c1ccnc(-c2cnc(C(=O)CCCCCCc3ccccc3)o2)c1 [Example 35, Methyl 2-(2-(7-phenylheptanoyl)oxazol-5-yl)isonicotinate] |
| > 50 | – | – | O=C(CCCCCCc1ccccc1)c1ncc(-c2ncccc2C(=O)O)o1 [Example 40, 2-(2-(7-Phenylheptanoyl)oxazol-5-yl)nicotinic acid] |
| 15 | – | – | Cc1cccnc1-c1cnc(C(=O)CCCCCCc2ccccc2)o1 [Example 44, 1-(5-(3-Methylpyridin-2-yl)oxazol-2-yl)-7-phenylheptan-1-one] |
| 400 | 1900 | – | COc1ccccc1-c1cnc(C(=O)CCCCCCc2ccccc2)o1 [Example 13, 1-(5-(2-Methoxyphenyl)oxazol-2-yl)-7-phenylheptan-1-one] |
